Experimental data taken from PubChem BioAssay AID256 (DTP/NCI, 2004).
Values joined by “and” are separate entries in the source; they are usually repeats but may differ in a detail not shown here. Equal entries are not always repeated. Inconclusive results and toxic doses are left out. Residues, ends and D or L forms follow the SMILES beside them. *: point of attachment. Cbz = O=C(OCc1ccccc1)*

Test system: CD2F1 mice, L1210 leukemia ip, survival T/C
Assay: NCI In Vivo Anticancer Drug Screen. Data for tumor model L1210 Leukemia (intraperitoneal) in CD2F1 (CDF1) mice
Details: endpoint: mean survival time, higher = longer survival
In short: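 Transplantable tumor in mice; compound-treated vs vehicle-treated groups. Read-out = treated/control ratio of the measured endpoint.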

[1] = dose: 50.0 mg/kg/injection, schedule: Q01DX009 (ip), vehicle: saline with Tween-80
[2] = dose: 100.0 mg/kg/injection, schedule: Q01DX001 (ip), vehicle: saline
[3] = dose: 100.0 mg/kg/injection, schedule: Q01DX009 (ip), vehicle: saline with Tween-80
[4] = dose: 200.0 mg/kg/injection, schedule: Q01DX001 (ip), vehicle: saline
[5] = dose: 25.0 mg/kg/injection, schedule: Q04DX003 (ip), vehicle: saline
[6] = dose: 50.0 mg/kg/injection, schedule: Q04DX003 (ip), vehicle: saline
[7] = dose: 12.5 mg/kg/injection, schedule: Q01DX009 (ip), vehicle: saline with Tween-80
[8] = dose: 25.0 mg/kg/injection, schedule: Q01DX009 (ip), vehicle: saline with Tween-80
[9] = dose: 200.0 mg/kg/injection, schedule: Q01DX009 (ip), vehicle: saline with Tween-80
[10] = dose: 100.0 mg/kg/injection, schedule: Q04DX003 (ip), vehicle: saline with Tween-80
[11] = dose: 200.0 mg/kg/injection, schedule: Q04DX003 (ip), vehicle: saline with Tween-80
[12] = dose: 400.0 mg/kg/injection, schedule: Q04DX003 (ip), vehicle: saline with Tween-80
[13] = dose: 6.25 mg/kg/injection, schedule: Q01DX009 (ip), vehicle: saline with Tween-80

`CCCCCCCCCCCCCCC/C([O-])=N/[N+](C)(C)CC(C)O` (centres undefined) was tested, and the T/C (dose: 25.0 mg/kg/injection, schedule: Q01DX001 (ip), vehicle: saline) was 95 % of control and 100 % of control, the T/C (dose: 50.0 mg/kg/injection, schedule: Q01DX001 (ip), vehicle: saline) was 100 % of control and the T/C [1] was 89 % of control. The T/C [2] was 89 % of control and 97 % of control, the T/C [3] was 91 % of control and the T/C [4] was 97 % of control. For the same compound, the T/C (dose: 400.0 mg/kg/injection, schedule: Q01DX001 (ip), vehicle: saline) was 100 % of control.
For `Cn1c(=O)c2c(ncn2CCCNCC(O)c2ccc(O)c(CO)c2)n(C)c1=O` (centres undefined), the T/C (dose: 12.5 mg/kg/injection, schedule: Q01DX005 (ip), vehicle: water) was 96 % of control, the T/C (dose: 25.0 mg/kg/injection, schedule: Q01DX005 (ip), vehicle: water) was 96 % of control and the T/C (dose: 50.0 mg/kg/injection, schedule: Q01DX005 (ip), vehicle: water) was 100 % of control. For the same compound, the T/C (dose: 100.0 mg/kg/injection, schedule: Q01DX005 (ip), vehicle: water) was 96 % of control and the T/C (dose: 200.0 mg/kg/injection, schedule: Q01DX005 (ip), vehicle: water) was 98 % of control.
For `Cc1nc(C(N)=O)c(=O)[nH]c1C`, the T/C [5] was 102 % of control, the T/C [6] was 107 % of control and the T/C (dose: 100.0 mg/kg/injection, schedule: Q01DX009 (ip), vehicle: saline) was 111 % of control. For the same compound, the T/C (dose: 100.0 mg/kg/injection, schedule: Q04DX003 (ip), vehicle: saline) was 101 % of control, the T/C (dose: 200.0 mg/kg/injection, schedule: Q01DX009 (ip), vehicle: saline) was 100 % of control and the T/C (dose: 400.0 mg/kg/injection, schedule: Q01DX009 (ip), vehicle: saline) was 97 % of control.
With `CN(C)/N=C(\CBr)c1ccc(Br)cc1` the T/C [2] was 103 % of control and the T/C [4] was 100 % of control.
In the case of `Oc1ccc(I)c2cccnc12`, the T/C [7] is reported as 98 % of control, the T/C [8] is reported as 98 % of control and the T/C (dose: 45.0 mg/kg/injection, schedule: Q01DX009 (ip), vehicle: saline) is reported as 97 % of control. For the same compound, the T/C [1] was 98 % of control, the T/C (dose: 90.0 mg/kg/injection, schedule: Q01DX009 (ip), vehicle: saline) was 108 % of control and the T/C [3] was 98 % of control. For the same compound, the T/C (dose: 180.0 mg/kg/injection, schedule: Q01DX009 (ip), vehicle: saline) was 112 % of control and the T/C [9] was 104 % of control.
`CC(C)CC(NC(=O)C(C)NC(=O)OCc1ccccc1)C(N)=O` (stereo not drawn) (Cbz-Ala-Leu-NH2; configuration not given here) was tested, and the T/C [3] was 89 % of control.
With `CCOC(=O)NC(=S)Nc1ncn[nH]1` the T/C (dose: 25.0 mg/kg/injection, schedule: Q01DX001 (ip), vehicle: carboxymethylcellulose (CMC)) was 102 % of control, the T/C (dose: 50.0 mg/kg/injection, schedule: Q01DX001 (ip), vehicle: carboxymethylcellulose (CMC)) was 97 % of control and the T/C (dose: 100.0 mg/kg/injection, schedule: Q01DX001 (ip), vehicle: carboxymethylcellulose (CMC)) was 97 % of control. The T/C (dose: 200.0 mg/kg/injection, schedule: Q01DX001 (ip), vehicle: carboxymethylcellulose (CMC)) was 93 % of control.
With `CC(C)(C)C1CC(=O)N(c2ccccc2)N1` (centres undefined) the T/C [10] was 106 % of control, the T/C [11] was 98 % of control and the T/C [12] was 98 % of control.
`Nc1cc(OCC(=O)O)c(Cl)cc1Cl` was tested, and the T/C (dose: 50.0 mg/kg/injection, schedule: Q01DX009 (ip), vehicle: Klucel (hydroxypropylcellulose) (HPC)) was 96 % of control, the T/C (dose: 100.0 mg/kg/injection, schedule: Q01DX009 (ip), vehicle: Klucel (hydroxypropylcellulose) (HPC)) was 89 % of control and the T/C (dose: 200.0 mg/kg/injection, schedule: Q01DX009 (ip), vehicle: Klucel (hydroxypropylcellulose) (HPC)) was 93 % of control.
In the case of `CN(C)C1CC2C=CC1C1C=CC21` (centres undefined), the T/C (dose: 6.25 mg/kg/injection, schedule: Q01DX009 (ip), vehicle: water) is reported as 100 % of control, the T/C (dose: 12.5 mg/kg/injection, schedule: Q01DX009 (ip), vehicle: water) is reported as 97 % of control and the T/C (dose: 25.0 mg/kg/injection, schedule: Q01DX009 (ip), vehicle: water) is reported as 101 % of control. The T/C (dose: 50.0 mg/kg/injection, schedule: Q01DX009 (ip), vehicle: water) was 103 % of control.
With `COC(=O)CCN(c1ccccc1)c1ccc(C)cc1` the T/C [10] was 97 % of control, the T/C [11] was 97 % of control and the T/C [12] was 97 % of control.
`O=P(NCCCO)(OCc1ccccc1)N(CCCl)CCCl` (centres undefined) was tested, and the T/C (dose: 15.63 mg/kg/injection, schedule: Q01DX001 (ip), vehicle: DMSO) was 101 % of control, the T/C (dose: 31.25 mg/kg/injection, schedule: Q01DX001 (ip), vehicle: DMSO) was 98 % of control and the T/C (dose: 62.5 mg/kg/injection, schedule: Q01DX001 (ip), vehicle: DMSO) was 101 % of control. For the same compound, the T/C (dose: 125.0 mg/kg/injection, schedule: Q01DX001 (ip), vehicle: DMSO) was 104 % of control, the T/C (dose: 250.0 mg/kg/injection, schedule: Q01DX001 (ip), vehicle: DMSO) was 116 % of control and the T/C (dose: 1000.0 mg/kg/injection, schedule: Q01DX001 (ip), vehicle: DMSO) was 173 % of control. For the same compound, the T/C (dose: 1000.0 mg/kg/injection, schedule: Q01DX001 (ip), vehicle: other) was 178 % of control.
With `Cc1cccc[n+]1C` the T/C (dose: 12.5 mg/kg/injection, schedule: Q04DX003 (ip), vehicle: saline) was 102 % of control, the T/C [5] was 104 % of control and the T/C [6] was 100 % of control.
With `CC(C)(C)N1CC2C(c3ccccc3)NNC2(O)C1=O` (centres undefined) the T/C [3] was 109 % of control, the T/C [9] was 113 % of control and the T/C (dose: 400.0 mg/kg/injection, schedule: Q01DX009 (ip), vehicle: saline with Tween-80) was 105 % of control.
In the case of `CCCCCCCCCC1=NC(C)(C)CN1C(C)(C)CO`, the T/C (dose: 1.25 mg/kg/injection, schedule: Q01DX009 (ip), vehicle: saline with Tween-80) is reported as 106 % of control, the T/C (dose: 2.5 mg/kg/injection, schedule: Q01DX009 (ip), vehicle: saline with Tween-80) is reported as 109 % of control and the T/C (dose: 5.0 mg/kg/injection, schedule: Q01DX009 (ip), vehicle: saline with Tween-80) is reported as 91 % of control.
For `C[N+](C)(C)/N=C\c1cccc2ccccc12`, the T/C [13] was 111 % of control, the T/C [7] was 107 % of control and the T/C [8] was 104 % of control.
With `COc1cc2c(cc1OC)C(CCNC(=O)CCCO)NCC2` (centres undefined) the T/C (dose: 100.0 mg/kg/injection, schedule: Q01DX001 (ip), vehicle: saline sonified) was 97 % of control, the T/C (dose: 100.0 mg/kg/injection, schedule: Q01DX009 (ip), vehicle: saline sonified) was 98 % of control and the T/C (dose: 200.0 mg/kg/injection, schedule: Q01DX001 (ip), vehicle: saline sonified) was 100 % of control. The T/C (dose: 200.0 mg/kg/injection, schedule: Q01DX009 (ip), vehicle: saline sonified) was 95 % of control, the T/C (dose: 400.0 mg/kg/injection, schedule: Q01DX001 (ip), vehicle: saline sonified) was 100 % of control and the T/C (dose: 400.0 mg/kg/injection, schedule: Q01DX009 (ip), vehicle: saline sonified) was 91 % of control.
`Fc1cc(F)c(F)c(-c2c(F)c(F)cc(F)c2F)c1F` was tested, and the T/C [1] was 103 % of control, the T/C [3] was 103 % of control and the T/C [9] was 96 % of control.
In the case of `Oc1ccccc1-c1nnc(-c2ccccc2)o1`, the T/C (dose: 50.0 mg/kg/injection, schedule: Q04DX002 (ip), vehicle: saline with Tween-80) is reported as 91 % of control, the T/C (dose: 100.0 mg/kg/injection, schedule: Q04DX002 (ip), vehicle: saline with Tween-80) is reported as 87 % of control and the T/C (dose: 200.0 mg/kg/injection, schedule: Q04DX002 (ip), vehicle: saline with Tween-80) is reported as 95 % of control. The T/C (dose: 400.0 mg/kg/injection, schedule: Q04DX002 (ip), vehicle: saline with Tween-80) was 87 % of control.
For `Cc1ccc(S(=O)(=O)OC2CNP(=O)(N(CCCl)CCCl)OC2)cc1` (centres undefined), the T/C (dose: 25.0 mg/kg/injection, schedule: Q01DX001 (ip), vehicle: DMSO) was 96 % of control, the T/C (dose: 50.0 mg/kg/injection, schedule: Q01DX001 (ip), vehicle: DMSO) was 100 % of control and the T/C (dose: 100.0 mg/kg/injection, schedule: Q01DX001 (ip), vehicle: DMSO) was 94 % of control. The T/C (dose: 200.0 mg/kg/injection, schedule: Q01DX001 (ip), vehicle: DMSO) was 100 % of control, the T/C (dose: 400.0 mg/kg/injection, schedule: Q01DX001 (ip), vehicle: DMSO) was 98 % of control and the T/C (dose: 800.0 mg/kg/injection, schedule: Q01DX001 (ip), vehicle: DMSO) was 91 % of control.
With `CCOC(=O)C(Br)(Br)C(=O)OCC` the T/C [13] was 99 % of control, the T/C [7] was 99 % of control and the T/C [8] was 99 % of control.
`CC(=O)SCCC(=O)O` was tested, and the T/C [5] was 96 % of control and the T/C [6] was 104 % of control.
